US20230234936A1, “COMPOUND FOR TARGETING AND DEGRADING PROTEIN, AND PREPARATION METHOD THEREFOR AND USE THEREOF” (SHANGHAI LEADINGTAC PHARMACEUTICAL CO., LTD., priority 2020, published 2023)
pIC50: −log10 of the molar value.

Tests used:
[1] = molecular target: T1, IRAK4 kinase (Homo sapiens, UniProt Q9NWZ3); experiment: IRAK4 kinase activity test (KinEASE-STK S1 HTRF kit); format: biochemical; settings: 2.5 nM kinase, 1 μM biotinylated polypeptide substrate, 7 μM ATP, 37° C. 120 min
T1 sequence (Q9NWZ3 1-460): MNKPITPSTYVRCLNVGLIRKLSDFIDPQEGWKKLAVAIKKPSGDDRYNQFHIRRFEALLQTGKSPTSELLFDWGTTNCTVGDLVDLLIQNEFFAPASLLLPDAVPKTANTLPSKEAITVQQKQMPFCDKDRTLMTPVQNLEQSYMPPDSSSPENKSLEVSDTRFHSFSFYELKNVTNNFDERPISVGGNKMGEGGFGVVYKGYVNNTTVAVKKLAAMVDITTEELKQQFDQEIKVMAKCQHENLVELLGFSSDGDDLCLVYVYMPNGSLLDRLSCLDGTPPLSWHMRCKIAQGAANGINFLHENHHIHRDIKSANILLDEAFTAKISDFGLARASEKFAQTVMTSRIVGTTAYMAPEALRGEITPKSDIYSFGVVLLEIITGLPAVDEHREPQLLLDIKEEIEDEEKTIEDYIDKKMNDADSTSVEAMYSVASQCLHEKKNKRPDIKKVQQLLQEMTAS
Procedure: KinEASE-STK S1 serine/threonine kinase kit (Cisbio) was used to detect the inhibitory effect of the compound on IRAK4 kinase activity. The specific method was: the compound was dissolved in dimethyl sulfoxide, and then it was diluted with the buffer solution of the kit by equal gradient to make the final concentration range of the tested compound in the reaction system 10000 nM-0.038 nM, then 2.5 nM kinase, 1 μM biotinylated polypeptide substrate and 7 μM adenosine triphosphate (ATP) were added in sequence and incubated at 37° C. for 120 min. Subsequently, anti-phosphorylated serine/threonine antibody coupled with europium element compound and modified XL665 streptavidin were added to the reaction system to terminate the reaction. After incubating at room temperature for 1 h, the fluorescence intensity of each well at the emission wavelength of 620 nm and 665 nm and the excitation wavelength of 337 nm was determined in HTRF mode on the microplate reader EnVision(PerkinElmer), the ratio value was calculated using the formula Ratio=(665 nm/620 nm)×10^4. By comparing with the fluorescence intensity ratio of the control group, the inhibition rate of the compound at each concentration was calculated, and then the IC50 value of the compound was obtained by fitting the nonlinear curve with the logarithmic concentration-inhibition rate by GraphPad Prism 7.

[2] = molecular target: T2, IRAK4 protein in THP-1 cells (Homo sapiens, UniProt Q9NWZ3); experiment: Degradation of IRAK4 in THP-1 cells (Western blot); format: cell-based; settings: 24 hours, compound 1-3000 nM
T2 construct: endogenous in cells; host or cells: THP-1
T2 sequence (Q9NWZ3 1-460): T1 sequence (Q9NWZ3 1-460)
Procedure: Each well of the 24-well cell culture plate was inoculated with 0.95 mL THP-1 cells (stem cell bank of Chinese academy of sciences) with a cell density of 5×10^5 cells/well. The cell plate was placed in a 5% carbon dioxide incubator and cultured overnight at 37° C., then 50 μL compound in dimethyl sulfoxide was added. The final concentration of the compound was in the range of 1-3000 nM. After continuous cultivation for 24 hours, the cells were collected into a 1.5 mL centrifuge tube, centrifuged at 1000 rpm and 4° C. for 5 minutes. Cell precipitation was cleaned twice with 1-DPBS, resuspended cells were lysed with 200 μL lysate (cell lysate was Western and IP cell lysate (Beyotime), supplemented with 1 mM mixture of phenylmethylsulfonyl fluoride and protease inhibitor (Beyotime)), left on ice for 30 minutes, then centrifuged at 14000 g at 4° C. for 10 minutes, and the supernatant was taken to detect IRAK4 protein level by Western blot.
Western blot method: The total protein concentration in the supernatant of cell lysis was determined by BCA protein quantitative kit (Tiangen). According to the concentration of total protein detected by BCA, the supernatant was adjusted to 0.2 μg/μL with PBS and 5× SDS-PAGE protein loading buffer (Beyotime), bathed in water at 100° C. for 10 minutes, then placed in ice bath for 5 minutes, centrifuged at 14000 g and 4° C. for 5 minutes, and then collected as WB loading sample. Prefabricated glue (KeyGEN) was used for protein electrophoresis with a loading amount of 10 μL (total protein 2 μg). After Tris-MOPS-SDS electrophoresis solution (Adamas), 120V constant pressure electrophoresis was performed. After electrophoresis, the protein on the adhesive strip was transferred to PVDF membrane with a constant current of […] for 50 minutes. After the membrane was transferred, the membrane was placed in 1×QuickBlock blocking buffer (Beyotime) and incubated for 30 minutes at room temperature. After blocking, PVDF membranes were incubated with IRAK4 primary antibody (Abcam) overnight at 4°, the membranes were washed with TBST buffer (2.4 g Tris, 8.8 g NaCl, 1.5 mL Tween 20, pH adjusted to 7.4, constant volume to 1 L) for 30 minutes, incubated with secondary antibody (Abcam) for 2 hours at room temperature, finally incubated with Clarity Western ECL Substrate(BIO-RAD) for 5 minutes for luminescence development, chemiluminescence imaging system (Clinx, chemiScope 6200 Touch) for development and protein mapping photography. The protein map was analyzed by Clinx chemiluminescence analysis software for grayscale values. Using the formula: grayscale correction value=(target protein grayscale value/corresponding internal reference grayscale value)×10^3, the grayscale correction value of each sample was calculated. The degradation rate was calculated by comparing with the grayscale correction value of the control group. Furthermore, DC50 and Dmax values of the compound were obtained by the nonlinear curve fitting with the logarithmic concentration-inhibition rate by GraphPad Prism 7.

SMILES: COc1ccc(C(=O)N2CCC3(CCC(CCN4CCC(n5cc6cc(NC(=O)c7cccc(C(F)(F)F)n7)c(C(C)(C)O)cc6n5)CC4)CC3)CC2)cc1N1CCC(=O)NC1=O [Example 21, N-(2-(1-(2-(3-(3-(2,4-dioxotetrahydro-pyrimidin-1 (2H)-yl)-4-me-thoxybenzoyl)-3-azaspiro [5.5]undec-9-yl)ethyl)piperidin-4-yl)-6-(2-hydroxyprop-2-yl)-2H-indazol-5-yl)-6-(trifluoro-methyl) pyridinecarbox-amide]
- pIC50 [1]: 7.74
- DC50 [2]: 4 nM
- Dmax [2]: 90.1%

SMILES: COc1cc2nn(C3CCN(CC4CCC5(CC4)CCN(C(=O)c4ccc(OC)c(N6CCC(=O)NC6=O)c4)CC5)CC3)cc2cc1NC(=O)c1cccc(C(F)(F)F)n1 [Example 30, N-(2-(1-((3-(3-(2,4-dioxotetrahydro-pyrimidin-1 (2H)-yl)-4-me-thoxybenzoyl)-3-azaspiro[5.5]undec-9-yl)methyl)piperidin-4-yl)-6-methoxy-2H-indazol-5-yl)-6-(tri-fluoromethyl) pyridinecarbox-amide]
- pIC50 [1]: 7.80
- DC50 [2]: 2.3 nM
- Dmax [2]: 98.4%

SMILES: COc1cc2nn(C3CCN(CCC4CCC5(CC4)CCN(C(=O)c4ccc(Cl)c(N6CCC(=O)NC6=O)c4)CC5)CC3)cc2cc1NC(=O)c1cccc(C(F)(F)F)n1 [Example 48, N-(2-(1-(2-(3-(4-chloro-3-(2,4-dioxotetrahydro-pyrimidin-1 (2H)-yl)benzoyl)-3-azaspiro[5.5]undec-9-yl)ethyl)piperidin-4-yl)-6-methoxy-2H-in-dazol-5-yl)-6-(tri-fluoromethyl) pyridinecarbox-amide]
- pIC50 [1]: 7.21
- DC50 [2]: 6 nM
- Dmax [2]: 98%

SMILES: CC(C)(O)c1cc2nn(C3CCN(CC4CCC5(CC4)CCN(C(=O)c4ccc(F)c(N6CCC(=O)NC6=O)c4)CC5)CC3)cc2cc1NC(=O)c1cccc(C(F)(F)F)n1 [Example 45, N-(2-(1-((3-(3-(2,4-dioxotetrahydro-pyrimidin-1 (2H)-yl)-4-fluoro-benzoyl)-3-azaspiro[5.5]undec-9-yl)methyl)piperidin-4-yl)-6-(2-hydroxyprop-2-yl)-2H-indazol-5-yl)-6-(trifluoro-methyl) pyridinecarbox-amide]
- pIC50 [1]: 7.63
- DC50 [2]: 1.9 nM
- Dmax [2]: 98.2%

SMILES: COc1cc2nn(C3CCN(CC4CCC5(CC4)CCN(C(=O)c4ccc(F)c(N6CCC(=O)NC6=O)c4)CC5)CC3)cc2cc1NC(=O)c1cccc(C(F)(F)F)n1 [Example 44, N-(2-(1-((3-(3-(2,4-dioxotetrahydro-pyrimidin-1 (2H)-yl)-4-fluoro-benzoyl)-3-azaspiro[5.5]undec-9-yl)methyl)piperidin-4-yl)-6-methoxy-2H-indazol-5-yl)-6-(trifluoromethyl) pyridinecarbox-amide]
- pIC50 [1]: 7.28
- DC50 [2]: 2.3 nM
- Dmax [2]: 98.5%

SMILES: COc1cc2nn([C@H]3CC[C@H](COCCC4CCN(C(=O)c5ccc(Cl)c(N6CCC(=O)NC6=O)c5)CC4)CC3)cc2cc1NC(=O)c1cccc(C(F)(F)F)n1 [Example 64, N-(2-((1r,4r)-4-((2-(1-(4-chloro-3-(2,4-dioxotetrahydro-pyrimidin-1 (2H)-yl)benzoyl)piperidin-4-yl)ethoxy)methyl)cyclohexyl)-6-methoxy-2H-indazol-5-yl)-6-(trifluoro-methyl) pyridinecarbox-amide]
- pIC50 [1]: 7.32
- DC50 [2]: 13.9 nM
- Dmax [2]: 95.6%

SMILES: COc1ccc(C(=O)N2CCC(OCCN3CCC(n4cc5cc(NC(=O)c6cccc(C(F)(F)F)n6)c(C(C)(C)O)cc5n4)CC3)CC2)cc1N1CCC(=O)NC1=O [Example 23, N-(2-(1-(2-((1-(3-(2,4-dioxotetrahydro-pyrimidin-1 (2H)-yl)-4-me-thoxybenzoyl)piperidin-4-yl)oxy)ethyl)piperdin-4-yl)-6-(2-hydroxyprop-2-yl)-2H-inda-zol-5-yl)-6-(triflu-oromethyl) pyridinecarbox-amide]
- pIC50 [1]: 8.07
- DC50 [2]: 32.4 nM
- Dmax [2]: 97.6%

SMILES: CC(C)(O)c1cc2nn(C3CCN(CCC4CCN(C(=O)c5ccc(Cl)c(N6CCC(=O)NC6=O)c5)CC4)CC3)cc2cc1NC(=O)c1cccc(C(F)(F)F)n1 [Example 35]
- pIC50 [1]: 7.99
- DC50 [2]: 8.4 nM
- Dmax [2]: 95.2%

SMILES: COc1cc2nn(C3CCN(CCC4CCN(C(=O)c5ccc(OC)c(N6CCC(=O)NC6=O)c5)CC4)CC3)cc2cc1NC(=O)c1cccc(C(F)(F)F)n1 [Example 6, N-(2-(1-(2-(1-(3-(2,4-dioxotetrahydropyrim-idin-1 (2H)-yl)-4-methoxyben-zoyl)piperidin-4-yl)ethyl)piperidin-4-yl)-6-me-thoxy-2H-indazol-5-yl)-6-(trifluoromethyl) pyridinecarboxamide]
- pIC50 [1]: 8.12
- DC50 [2]: 24 nM
- Dmax [2]: 91.7%

SMILES: COc1cc2nn(C3CCN(CCN4CCC5(CC4)CCN(C(=O)c4ccc(Cl)c(N6CCC(=O)NC6=O)c4)CC5)CC3)cc2cc1NC(=O)c1cccc(C(F)(F)F)n1 [Example 16, N-(2-(1-(2-(9-(4-chloro-3-(2,4-dioxotetrahydro-pyrimidin-1 (2H)-yl)benzoyl)-3,9-diazaspiro[5.5]undec-3-yl)ethyl)piperidin-4-yl)-6-methoxy-2H-in-dazol-5-yl)-6-(tri-fluoromethyl) pyridinecarbox-amide]
- pIC50 [1]: 8.04
- DC50 [2]: 7.1 nM
- Dmax [2]: 99.4%

SMILES: COc1cc2nn(C3CCN(CCCN4CCC5(CC4)CCN(C(=O)c4ccc(OC)c(N6CCC(=O)NC6=O)c4)CC5)CC3)cc2cc1NC(=O)c1cccc(C(F)(F)F)n1 [Example 2, N-(2-(1-(3-(9-(3-(2,4-dioxotetrahydropyrimi-din-1 (2H)-yl)-4-methoxyben-zoyl)-3,9-diazaspiro [5.5]undec-3-yl)propyl)piperidin-4-yl)-6-methoxy-2H-indazol-5-yl)-6-(tri-fluoromethyl)-2-pyridine carboxamide]
- pIC50 [1]: 8.54
- DC50 [2]: 7.4 nM
- Dmax [2]: 99.1%

SMILES: COc1cc2nn([C@H]3CC[C@H](N4CCC5(CCN(C(=O)c6ccc(Cl)c(N7CCC(=O)NC7=O)c6)CC5)CC4)CC3)cc2cc1NC(=O)c1cccc(C(F)(F)F)n1 [Example 58, N-(2-((1r,4r)-4-(9-(4-chloro-3-(2,4-dioxotetrahydro-pyrimidin-1 (2H)-yl)benzoyl)-3,9-diazaspiro[5.5]undec-3-yl)cyclohexyl)-6-methoxy-2H-inda-zol-5-yl)-6-(triflu-oromethyl) pyridinecarbox-amide]
- pIC50 [1]: 8.37
- DC50 [2]: 7.6 nM
- Dmax [2]: 92.1%
